The results in this text go back to PMC6273843, “Synthesis and Selective Cytotoxic Activities on Rhabdomyosarcoma and Noncancerous Cells of Some Heterocyclic Chalcones” (Molecules, 2016).

Where two headings read alike, the source gives them in different places.

The test system of data set [1] is Human muscle rhabdomyosarcoma (RMS) cell line (ATCC CCL-136). Briefly: MTT cell proliferation (cytotoxicity) assay on RMS cells. The class given is cell-based. Conditions: for IC50: MTT, 24 h incubation with sample.
The nature of data set [2]: MTT cytotoxicity assay on noncancerous LLC-PK1 cells. The data set is classed as cell-based, Pig. Particulars: pig, LLC-PK1 pig kidney epithelial cells, read-out: % Cell Viability on Noncancer LLC-PK1 cells. As to the method: (§1) Pig Kidney Epithelial (LLC-PK1) cell line (ATCC® CL-101™) was a generous gift of Prof. Jeong Hill Park, Research Institute of Pharmaceutical Science (College of Pharmacy, Seoul National University, Seoul 151-172, Korea).
(§2) RMS or LLC-PK1 cells were seeded and cultured in EMEM medium (Gibco, Waltham, MA, USA) supplemented with 10% fetal calf serum (FCS) (Gibco), 2 mM L-glutamine, 100 IU/mL penicillin and 100 µg/mL streptomycin (Sigma-Aldrich, St. Louis, MO, USA) in a humidified atmosphere of 5% CO2 at 37 °C.
(§3) The samples were dissolved in dimethyl sulfoxide (DMSO) at 10 mM and then diluted with culture medium to get three concentrations of 100; 50; 10 µM or 25; 12.5; 2.5 µM for cell proliferation assays. […] DMSO at different concentrations or was used as a blank control. Paclitaxel (Anzatax®, Mayne Pharma, Australia) was used as the reference compound at the concentration of 1, 5 and 10 µM (directly dissolved in culture medium).
(§4) The cells were cells were seeded in 96-well plates at 4.2 × 10^4 cell/cm^2. After 24 h of incubation at 37 °C, 5% CO2, 100 μL of chalcone samples at tested concentrations, reference compound, and blank control (DMSO) was added and incubated for 24 hours at 37 °C, 5% CO2.
(§5) Cell viability was evaluated as mitochondrial succinate dehydrogenase (SDH) activity, a marker of viable cells, using MTT test as described by Denizot and Lang. Briefly, SDH activity was detected after 3 hours incubation in culture medium without FCS containing 0.05 mg/mL MTT (3-4,5-dimethyl-thiazol-2-yl-2,5 diphenyl-tetrazolium bromide, Sigma-Aldrich), which is converted into formazan dissolved in acidified isopropanol (Merck, Darmstadt, Germany) by agitation for 10 min at room temperature. The produced purple solution was spectrophotometrically measured at 570 nm on Multiskan™ FC microplate Photometer (Thermo Scientific, Waltham, MA, USA).
(§6) Each assay was done in triplicate and the standard deviation of absorbance was less than 10% of the mean. The results were expressed as Mean + SD of six cultures of one representative experiment and statistically analyzed by Mann-Whitney test with SPSS 22.0 for Windows software. Threshold of significance was set at p < 0.05.
(§7) The IC50 values were calculated based on the linear regression between the concentrations of testing compound and the inhibition percentages of cells. The chalcone compounds with significant potential against RMS cells (IC50 < 20 μM) were then tested for their toxicity on LLC-PK1 cells.
A general note: Formazan colour is commonly taken as a measure of viable cells.

The subject of data set [3] is Pig Kidney Epithelial (LLC-PK1) cell line (ATCC CL-101). Described as above. Conditions: LLC-PK1 cells. The data set is classed as cell-based. As to the method:
as §1, §2, §3, §4, §5, §6, §7

Assay in data set [4]: as above
The data set is classed as cell-based. Conditions: pig, LLC-PK1 pig kidney epithelial cells, read-out: % Cell Viability on Noncancer LLC-PK1 cells.

As usually defined, the melting point is the temperature, or range, at which the solid turns liquid. One may read the IC50 as the concentration at which inhibition is half-maximal. A higher IC50 goes with a need for much substance. Usually viability stands for a read-out of living cells in per cent, often relative to untreated cells. For orientation: inhibition means the share of the control response that was lost under treatment. A lower inhibition goes with a weak effect.

In turn, `CN(C)c1ccc(/C=C/C(=O)c2ccc3c(c2)Nc2ccccc2S3)cc1` [Compound 1, (E)-3-(4-(N,N-Dimethylamino)phenyl)-1-(10H-phenothiazin-2-yl)prop-2-en-1-one] had a melting point of 232 to 233 °C.

The compound `O=C(/C=C/c1ccc(OCc2ccccc2)cc1)c1ccc2c(c1)Nc1ccccc1S2` [Compound 2, (E)-3-(4-Benzyloxyphenyl)-1-(10H-phenothiazin-2-yl)prop-2-en-1-one] gave a melting point of 215 to 216 °C.

`O=C(/C=C/c1cccc(Br)c1)c1ccc2c(c1)Nc1ccccc1S2` [Compound 3, (E)-3-(3-Bromophenyl)-1-(10H-phenothiazin-2-yl)prop-2-en-1-one] gave a melting point of 230 to 232 °C.

For the compound `O=C(/C=C/c1ccccc1Cl)c1ccc2c(c1)Nc1ccccc1S2` [Compound 7, (E)-3-(2-Chlorophenyl)-1-(10H-phenothiazin-2-yl)prop-2-en-1-one], the melting point fell in the range of 202 to 203 °C. Besides, the half-maximal inhibitory concentration (IC50) in data set [1] (Homo sapiens, 24 h) is below 20 µM. Inhibition in data set [1] was half-maximal at 18 ± 1.63 µM (IC50). Besides, the viability at 24 h, 10 µM in data set [2] (10 μM) came out at 100 ± 6.5%. Further, in data set [2], the viability at 24 h, 50 µM is 109 ± 10.9% and the viability at 24 h, 100 µM worked out at 94.8 ± 7.6%. Further, the “toxicity on the noncancerous LLC-PK1 cell line (in words)” value (“toxicity” for short) in data set [3] is reported as “almost complete absence of toxicity”.

In the case of `COc1ccc(/C=C/C(=O)c2ccc3c(c2)Nc2ccccc2S3)c(OC)c1` [Compound 8, (E)-3-(2,4-Dimethoxyphenyl)-1-(10H-phenothiazin-2-yl)prop-2-en-1-one], the melting point is 178 to 179 °C. Also, the IC50 in data set [1] (Homo sapiens, 24 h) is below 20 µM. The compound also came in with an IC50 in data set [1] of 19.7 ± 1.63 µM. Besides, in data set [2] (10 μM), the viability at 24 h, 10 µM stood at 97.3 ± 10.2%. Besides, in data set [2], the viability at 24 h, 50 µM stood at 103 ± 6.4% and the viability at 24 h, 100 µM was 105 ± 5.4%. Besides, in data set [3], the “toxicity” value was “almost complete absence of toxicity”.

As to `O=C(/C=C/c1cccs1)c1ccc2c(c1)Nc1ccccc1S2` [Compound 9, (E)-3-(Thiophen-2-yl)-1-(10H-phenothiazin-2-yl)prop-2-en-1-one], the melting point lay within 229 to 230 °C. Also, the IC50 in data set [1] (Homo sapiens, 24 h) was below 20 µM. The same compound had an IC50 in data set [1] of 12.5 ± 1.74 µM. Besides, in data set [2] (10 μM), the viability at 24 h, 10 µM was 98.8 ± 10.6%. In data set [2], the viability at 24 h, 50 µM came out at 98.2 ± 7.3% and the viability at 24 h, 100 µM was 97.1 ± 5%. The “toxicity” value in data set [3] is on record as “almost complete absence of toxicity”.

The compound `O=C(/C=C/c1ccc(Cl)cc1)c1cccs1` [Compound 10] showed a half-inhibitory concentration (IC50) in data set [1] (Homo sapiens, 24 h) of 49.6 ± 3.2 µM.

Compound `O=C(/C=C/c1ccccc1O)c1cccs1` [Compound 11] registered a half-maximal inhibitory concentration (IC50) in data set [1] (Homo sapiens, 24 h) of 48.8 ± 2.42 µM.

With `COc1cc(/C=C/C(=O)c2cccs2)cc(OC)c1OC` [Compound 13], the midpoint of inhibition in data set [1] (Homo sapiens, 24 h), the IC50, lay at 26.6 ± 1.42 µM. This IC50 lies about 1.8-fold lower than the previous one.

`COc1cc(/C=C/C(=O)c2ccco2)cc(OC)c1OC` [Compound 14] came in with an inhibition at 25 µM in data set [1] (Homo sapiens, 25 μM) of 42.9%. In addition, the inhibition at 50 µM in data set [1] (Homo sapiens, 50 μM) was found to be 26.5%. This compound also came in with an inhibition at 100 µM in data set [1] (Homo sapiens, 100 μM) of 15.1%. Moreover, the IC50 in data set [1] (Homo sapiens, 24 h) came out at 29.1 ± 1.82 µM.

In data set [1] (Homo sapiens, 24 h), `CN(C)c1ccc(/C=C/C(=O)c2ccco2)cc1` [Compound 15] registered a half-inhibitory concentration (IC50) of 77.3 ± 4.69 µM.

Consider `COc1cc(/C=C/C(=O)c2ccccn2)cc(OC)c1OC` [Compound 16], for which, in data set [1] (Homo sapiens, 24 h), the 50% inhibitory concentration (IC50) is below 20 µM. In data set [1], this compound showed a concentration for half-maximal inhibition (IC50) of 19.6 ± 1.04 µM. Moreover, the viability at 24 h, 10 µM in data set [2] (10 μM) amounted to 99.1 ± 3.1%. Further, in data set [2], the viability at 24 h, 50 µM came to 102 ± 12.1% and the viability at 24 h, 100 µM was 104 ± 6.5%. In addition, the “toxicity” value in data set [3] is “almost complete absence of toxicity”.

`COc1ccc(C(=O)/C=C/c2ccccn2)c(O)c1` [Compound 19, (E)-3-(Pyridin-2-yl)-1-(2-hydroxy-4-methoxyphenyl)prop-2-en-1-one] had a melting point of 130 to 131 °C. In data set [1] (Homo sapiens, 24 h), the IC50 is 26.6 ± 1.72 µM.

`COc1ccc(C(=O)/C=C/c2cccnc2)c(O)c1` [Compound 20, (E)-3-(Pyridin-3-yl)-1-(2-hydroxy-4-methoxyphenyl)prop-2-en-1-one] registered a melting point of 128 to 129 °C. Besides, the IC50 in data set [1] (Homo sapiens, 24 h) was found to be 20.8 ± 1.33 µM.

As for `CC(=O)O[C@H]1C(=O)[C@@]2(C)[C@H]([C@H](OC(=O)c3ccccc3)[C@]3(O)C[C@H](OC(=O)[C@H](O)[C@@H](NC(=O)c4ccccc4)c4ccccc4)C(C)=C1C3(C)C)[C@]1(OC(C)=O)CO[C@@H]1C[C@@H]2O` [Paclitaxel, reference compound], in data set [1] (Homo sapiens, 24 h), the concentration for half-maximal inhibition (IC50) turned out to be 10.8 ± 0.47 µM. The viability at 24 h, 10 µM in data set [2] (10 μM (paclitaxel reference)) is 108 ± 8.2%. Besides, in data set [4] (2 μM (paclitaxel reference)), the viability at 24 h, 2 µM stood at 103 ± 6%. In addition, the viability at 24 h, 20 µM in data set [4] (20 μM (paclitaxel reference)) was found to be 75 ± 3.6%.

For the compound “(E)-3-(Pyridin-2-yl)-1-(2-hydroxyphenyl)prop-2-en-1-one [Compound 17]”, the IC50 in data set [1] was 92.9 ± 6.14 µM.

As to “(E)-3-(Pyridin-3-yl)-1-(2-hydroxyphenyl)prop-2-en-1-one [Compound 18]”, the IC50 in data set [1] turned out to be 91.1 ± 2.45 µM.
